18 molecules from US8785488B2 (Exelixis Patent Company LLC, priority 2009, dated 2014) can be followed below.

One test concerns the target T1, h-TGR5 (Homo sapiens, UniProt Q8TDU6).
T1 construct: expressed in transfected cells
T1 sequence (Q8TDU6 1-330): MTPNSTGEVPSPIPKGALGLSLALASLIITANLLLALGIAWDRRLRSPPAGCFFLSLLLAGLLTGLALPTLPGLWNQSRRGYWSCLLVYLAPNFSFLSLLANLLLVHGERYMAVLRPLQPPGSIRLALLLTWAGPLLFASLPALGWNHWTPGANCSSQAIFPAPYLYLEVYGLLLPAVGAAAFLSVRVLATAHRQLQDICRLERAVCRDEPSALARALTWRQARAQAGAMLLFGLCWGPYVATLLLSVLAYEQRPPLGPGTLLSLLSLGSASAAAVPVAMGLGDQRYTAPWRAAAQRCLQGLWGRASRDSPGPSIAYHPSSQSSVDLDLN
The test can be described thus: TGR5 cAMP Assay using Cisbio cAMP Dynamic2 htrf kit (hTGR5CRE-luc HEK 293 cells). The class given is cell-based. The conditions noted are these: h-TGR5 cAMP EC50, Table 1; read-out: cAMP (EC50). The procedure, abridged: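 […], 4000 hTGR5CRE-luc HEK 293 cells per well, with 0.5 mM IBMX and d2-cAMP, were incubated 30 min at room temperature with compounds in 8-point half-log series, in quadruplicate.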

In another test the target is T2, human TGR5 (h-TGR5) (Homo sapiens, UniProt Q8TDU6).
T2 construct: expressed in transfected cells
T2 sequence (Q8TDU6 1-330): T1 sequence (Q8TDU6 1-330)
The test can be described thus: TGR5/CRE-Luciferiase Assay (HEK 293 hTGR5/CRE-Luc cells). The test is classed as cell-based. The conditions noted are these: h-TGR5 CRE-Luc EC50, Table 1; read-out: CRE-Luc (EC50). The procedure, abridged: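 HEK293 cells stably carrying hTGR5 and a CRE-luciferase reporter were exposed to serially diluted compounds (diluted in DMEM with 5% DMSO) for 6 h. Cells were then lysed in luciferase buffer, luminescence was read, and EC50 values were derived from dose-response curves.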

What is called EC50 is the concentration at which the effect is half-maximal. Take `CC(C)(c1ccc(S(N)(=O)=O)c(Cl)c1)c1cnc(SCc2ccc(Cl)c(-c3nnn[nH]3)c2)n1-c1ccc(F)c(F)c1` [2-chloro-4-{1-[2-({[4-chloro-3-(1H-tetrazol-5-yl)phenyl]methyl}thio)-1-(3,4-difluorophenyl)-1H-imidazol-5-yl]-1-methylethyl}benzenesulfonamide]: the EC50 on h-TGR5 and at human TGR5 (h-TGR5) was 100 to 1000 nM throughout.

In the case of `COc1cc(-n2c(C(C)(C)c3ccc(Cl)c(Cl)c3)cnc2SCc2ccc(C#CCNC(=N)N)c(C(=O)O)c2)ccc1F` [2-(3-{[amino(imino)methyl]amino}prop-1-yn-1-yl)-5-[({5-[1-(3,4-dichlorophenyl)-1-methylethyl]-1-[4-fluoro-3-(methyloxy)phenyl]-1H-imidazol-2-yl}thio)methyl]benzoic acid], the 50% effective concentration (EC50) on h-TGR5 and on human TGR5 (h-TGR5) was 100 to 1000 nM in each case.

In the case of `CCOC(=O)NS(=O)(=O)c1ccc(CSc2ncc(C(C)(C)c3ccc(OC)c(Cl)c3)n2-c2ccc(F)cc2)c(Cl)c1` [ethyl {[3-chloro-4-({[5-{1-[3-chloro-4-(methyloxy)phenyl]-1-methylethyl}-1-(4-fluorophenyl)-1H-imidazol-2-yl]thio}methyl)phenyl]sulfonyl}carbamate], the half-maximal effective concentration (EC50) on h-TGR5 and on human TGR5 (h-TGR5) was below 100 nM throughout.

Take `COc1cc(C(C)(C)c2cnc(SCc3c(F)cc(NC(=O)[C@@H](N)CC(=O)O)cc3Cl)n2-c2ccc(F)cc2)ccc1Cl`: the 50% effective concentration (EC50) at h-TGR5 and on human TGR5 (h-TGR5) was below 100 nM in each case.

In the case of `COc1cc(C(C)(C)c2cnc(SCc3c(F)cc(C(=O)NCS(=O)(=O)O)cc3Cl)n2-c2ccc(F)cc2)ccc1Cl` [({[3-chloro-4-({[5-{1-[4-chloro-3-(methyloxy)phenyl]-1-methylethyl}-1-(4-fluorophenyl)-1H-imidazol-2-yl]thio}methyl)-5-fluorophenyl]carbonyl}amino) methanesulfonic acid], the concentration for a half-maximal effect (EC50) on h-TGR5 and on human TGR5 (h-TGR5) was below 100 nM throughout.

As to `CC(C)(c1ccc(Cl)c(Cl)c1)c1cnc(SCc2ccc(S(=O)(=O)NC(=O)NN3CCCC3)cc2Cl)n1-c1ccc(F)cc1` [3-chloro-4-[({5-[1-(3,4-dichlorophenyl)-1-methylethyl]-1-(4-fluorophenyl)-1H-imidazol-2-yl}thio)methyl]-N-[(pyrrolidin-1-ylamino)carbonyl]benzenesulfonamide], the 50% effective concentration (EC50) on h-TGR5 lay within 1000 to 10000 nM; at human TGR5 (h-TGR5), 100 to 1000 nM.

Take `COc1cc(C(C)(C)c2cnc(SCc3ccc(S(=O)(=O)NC(=O)NN4CCCC4)cc3Cl)n2-c2ccc(F)cc2)ccc1Cl` [3-chloro-4-({[5-{1-[4-chloro-3-(methyloxy)phenyl]-1-methylethyl}-1-(4-fluorophenyl)-1H-imidazol-2-yl]thio}methyl)-N-[(pyrrolidin-1-ylamino)carbonyl]benzenesulfonamide]: the concentration for a half-maximal effect (EC50) on h-TGR5 and at human TGR5 (h-TGR5) was 100 to 1000 nM each time.

As to `CC(C)(c1ccc(Cl)c(Cl)c1)c1cnc(SCc2ccc(F)c(C(N)=O)c2)n1-c1ccc(F)cc1` [5-[({5-[1-(3,4-dichlorophenyl)-1-methylethyl]-1-(4-fluorophenyl)-1H-imidazol-2-yl}thio)methyl]-2-fluorobenzamide], the EC50 at h-TGR5 and at human TGR5 (h-TGR5) was 100 to 1000 nM in each case.

As for `CCOC(=O)NS(=O)(=O)c1ccc(CSc2ncc(C(C)(C)c3ccc(S(N)(=O)=O)c(Cl)c3)n2-c2ccc(F)cc2)c(Cl)c1` [ethyl {[4-({[5-{1-[4-(aminosulfonyl)-3-chlorophenyl]-1-methylethyl}-1-(4-fluorophenyl)-1H-imidazol-2-yl]thio}methyl)-3-chlorophenyl]sulfonyl}carbamate], the values for the EC50 at h-TGR5 and on human TGR5 (h-TGR5) were below 100 nM and 100 to 1000 nM, respectively.

For the molecule `COc1ccc(C(C)(C)c2cnc(SCc3ccc(S(=O)(=O)NC(=O)NN4CCCC4)cc3Cl)n2-c2ccc(F)c(C)c2)cc1Cl` [3-chloro-4-({[5-{1-[3-chloro-4-(methyloxy)phenyl]-1-methylethyl}-1-(4-fluoro-3-methylphenyl)-1H-imidazol-2-yl]thio}methyl)-N-[(pyrrolidin-1-ylamino)carbonyl]benzenesulfonamide], the concentration for a half-maximal effect (EC50) at h-TGR5 and on human TGR5 (h-TGR5) was 100 to 1000 nM in each case.

As to `COc1cc(-n2c(C(C)(C)c3ccc(S(N)(=O)=O)c(Cl)c3)cnc2SCc2ccc(Cl)c(-c3nnn[nH]3)c2)ccc1F` [2-chloro-4-(1-{2-({[4-chloro-3-(1H-tetrazol-5-yl)phenyl]methyl}thio)-1-[4-fluoro-3-(methyloxy)phenyl]-1H-imidazol-5-yl}-1-methylethyl)benzenesulfonamide], the 50% effective concentration (EC50) on h-TGR5 and at human TGR5 (h-TGR5) was 100 to 1000 nM each time.

In the case of `CC(C)(c1ccc(Cl)c(Cl)c1)c1cnc(SCC2CCN(S(C)(=O)=O)CC2)n1-c1ccc(F)c(Cl)c1` [4-[({1-(3-chloro-4-fluorophenyl)-5-[1-(3,4-dichlorophenyl)-1-methylethyl]-1H-imidazol-2-yl}thio)methyl]-1-(methylsulfonyl)piperidine], the results for the EC50 on h-TGR5 and on human TGR5 (h-TGR5) were 100 to 1000 nM and below 100 nM, respectively.

Turning to `CC(C)NC(=O)NS(=O)(=O)c1ccc(CSc2ncc(C(C)(C)c3ccc(F)c(C(F)F)c3)n2-c2ccc(F)cc2)c(Cl)c1` [3-chloro-4-({[5-{1-[3-(difluoromethyl)-4-fluorophenyl]-1-methylethyl}-1-(4-fluorophenyl)-1H-imidazol-2-yl]thio}methyl)-N-{[(1-methylethyl)amino]carbonyl} benzenesulfonamide], the concentration giving a half-maximal response (EC50) at h-TGR5 and at human TGR5 (h-TGR5) was 100 to 1000 nM throughout.

As to `CC(C)(c1ccc(O)c(O)c1)c1cnc(SCc2c(F)cccc2Cl)n1-c1ccc(F)cc1` [4-{1-[2-{[(2-chloro-6-fluorophenyl)methyl]thio}-1-(4-fluorophenyl)-1H-imidazol-5-yl]-1-methylethyl}benzene-1,2-diol], the 50% effective concentration (EC50) is 100 to 1000 nM on h-TGR5 and below 100 nM at human TGR5 (h-TGR5).

On to `CCOC(=O)NS(=O)(=O)c1ccc(CSc2ncc(C(C)(C)c3ccc(Cl)c(OC)c3)n2-c2ccc(F)cc2)cc1F` [ethyl {[4-({[5-{1-[4-chloro-3-(methyloxy)phenyl]-1-methylethyl}-1-(4-fluorophenyl)-1H-imidazol-2-yl]thio}methyl)-2-fluorophenyl]sulfonyl}carbamate], for which the EC50 at h-TGR5 and on human TGR5 (h-TGR5) was below 100 nM in each case.

On to `Cc1cc(-n2c(C(C)(C)c3ccc(Cl)c(Cl)c3)cnc2SCc2ccc(S(=O)(=O)NC(=O)NN3CCCC3)cc2Cl)ccc1F` [3-chloro-4-[({5-[l-(3,4-dichlorophenyl)-1-methylethyl]-1-(4-fluoro-3-methylphenyl)-1H-imidazol-2-yl}thio)methyl]-N-[(pyrrolidin-1-ylamino)carbonyl]benzenesulfonamide], for which the EC50 on h-TGR5 and at human TGR5 (h-TGR5) was 100 to 1000 nM in each case.

In the case of `COc1cc(-n2c(C(C)(C)c3ccc(Cl)c(Cl)c3)cnc2SCc2c(F)cc(C(=O)NCS(=O)(=O)O)cc2F)ccc1F` [[({4-[({5-[1-(3,4-dichlorophenyl)-1-methylethyl]-1-[4-fluoro-3-(methyloxy)phenyl]-1H-imidazol-2-yl}thio)methyl]-3,5-difIuorophenyl}carbonyl)amino]methanesulfonic acid], the EC50 at h-TGR5 and on human TGR5 (h-TGR5) was below 100 nM in each case.

Consider `CC(C)(c1cccc(S(C)(=O)=O)c1)c1cnc(SCc2c(F)cccc2Cl)n1-c1ccc(F)cc1` [2-{[(2-chloro-6-fluorophenyl)methyl]thio}-1-(4-fluorophenyl)-5-{1-methyl-1-[3-(methylsulfonyl)phenyl]ethyl}-1H-imidazole], for which the half-maximal effective concentration (EC50) is below 100 nM at h-TGR5 and 100 to 1000 nM on human TGR5 (h-TGR5).
